The source of these data is patent publication US12263163B2 (Kronos Bio, Inc., priority 2013, dated 2025).

This series deals with human hepatocytes. Put plainly: Human Hepatocyte Stability Assay (predicted hepatocyte clearance). The class given is in vitro ADME. Particulars: comparison table with known Syk inhibitors, head prints (units). On the procedure:
The human […] stability of the compounds as predicted hepatocyte clearance in L/hr/kg was assessed. Compounds to be tested were diluted to 200 μM (4 μl of 10 mM DMSO stock into 196 μl ACN:H2O (50:50). Propranolol was used as a positive control, and buffer only without hepatocytes as 0% control. These were further diluted 4 μl with 891 μl KHB buffer (InVitroGRO catalog number Z99074) to provide 2× dosing solution. To each well of 24 well plate, 250 μl of the 2× dosing solution was added to each well with 250 μl of hepatocytes cells (1×10^6 viable cells/ml per well) or KHB for control samples to achieve a final compound concentration of 1 μM during incubation. The final solvent concentration was 0.01% DMSO and 0.25% ACN. The culture plate was placed on a rocker and incubated at 37° C., 5% CO2. Samples were collected at time 0, 1, 3, and 6 hours. The loss of parent compound was determined using LC-MS methods against a standard curve.
For `COc1ccc(Nc2nc(-c3cccc(N)c3)cn3ccnc23)cc1OC` [6-(3-aminophenyl)-N-(3,4-dimethoxyphenyl)imidazo[1,2-a]pyrazin-8-amine, reference compound], the “Hheps CL” value was 4 mL/min/kg.
The value for `Cc1ncc(-c2cn3ccnc3c(Nc3ccc(N4CCOCC4)cc3)n2)cc1N` [6-(5-amino-6-methylpyridin-3-yl)-N-(4-morpholinophenyl)imidazo[1,2-a]pyrazin-8-amine, reference compound] was 13.3 mL/min/kg.
The value for `Nc1cncc(-c2cn3ccnc3c(Nc3ccc(N4CCOCC4)cc3)n2)c1` [6-(5-aminopyridin-3-yl)-N-(4-morpholinophenyl)imidazo[1,2-a]pyrazin-8-amine, reference compound] was 11.3 mL/min/kg; that for `COc1ccc(Nc2nc(-c3ccc(N)nc3)cn3ccnc23)cc1OC` [6-(6-aminopyridin-3-yl)-N-(3,4-dimethoxyphenyl)imidazo[1,2-a]pyrazin-8-amine, reference compound] was 15 mL/min/kg; that for `Cc1ncc(-c2cn3ccnc3c(Nc3ccc(N4CCN(C5COC5)CC4)cc3)n2)nc1N` [Ex.-1, 6-(6-amino-5-methylpyrazin-2-yl)-N-(4-(4-(oxetan-3-yl)piperazin-1-yl)phenyl)imidazo[1,2-a]pyrazin-8-amine] was 2 mL/min/kg.
To `Nc1cncc(-c2cn3ccnc3c(Nc3ccc(N4CCN(C5COC5)CC4)cc3)n2)n1` [Ex.-2, 6-(6-aminopyrazin-2-yl)-N-(4-(4-(oxetan-3-yl)piperazin-1-yl)phenyl)imidazo[1,2-a]pyrazin-8-amine] belongs 0.917 mL/min/kg; to `Nc1cncc(-c2cn3ccnc3c(Nc3ccc(N4CCO[C@@H](CO)C4)cc3)n2)n1` [Ex.-3, (R)-(4-(4-((6-(6-aminopyrazin-2-yl)imidazo[1,2-a]pyrazin-8-yl)amino)phenyl)morpholin-2-yl)methanol], 1.5 mL/min/kg; to `Cc1c(-c2cncc(N)n2)nc(Nc2ccc(N3CCN(C4COC4)CC3)cc2)c2nccn12` [Ex.-4, 6-(6-aminopyrazin-2-yl)-5-methyl-N-(4-(4-(oxetan-3-yl)piperazin-1-yl)phenyl)imidazo[1,2-a]pyrazin-8-amine], 1.3 mL/min/kg.
As to `Nc1cncc(-c2cn3ccnc3c(Nc3ccc(N4CCN(C5COC5)CC4)c(OCCO)c3)n2)n1` [Ex.-5, 2-(5-((6-(6-aminopyrazin-2-yl)imidazo[1,2-a]pyrazin-8-yl)amino)-2-(4-(oxetan-3-yl)piperazin-1-yl)phenoxy)ethanol], the “Hheps CL” value was 1.2 mL/min/kg.
The value for `Nc1cncc(-c2cn3ccnc3c(Nc3ccc(N4CCN(CC(CO)CO)CC4)cc3)n2)n1` [Ex.-6, 2-((4-(4-((6-(6-aminopyrazin-2-yl)imidazo[1,2-a]pyrazin-8-yl)amino)phenyl)piperazin-1-yl)methyl)propane-1,3-diol] was 1.3 mL/min/kg; that for `Cc1ncc(-c2cn3ccnc3c(Nc3ccc(N4CCN(C5COC5)CC4)c(OCCO)c3)n2)nc1N` [Ex.-7, 2-(5-((6-(6-amino-5-methylpyrazin-2-yl)imidazo[1,2-a]pyrazin-8-yl)amino)-2-(4-(oxetan-3-yl)piperazin-1-yl)phenoxy)ethanol] was 0.83 mL/min/kg.
